Reference: PMC10959927, “Platinum iodido drugs show potential anti-tumor activity, affecting cancer cell metabolism and inducing ROS and senescence in gastrointestinal cancer cells” (Communications Biology, 2024)
Values joined by “and” are separate entries in the source; they are usually repeats but may differ in a detail not shown here. Identical values can stand only once.

What was measured:
[1] = test system: PANC1 cells; assay: Immunofluorescence of γ-H2AX and 53BP1 foci; format: cell-based, human; details: for foci/cell, share of cells in class (Suma 100) / foci/cell, number of cells in class: PANC1, Fig. 3B; for foci/cell, number of cells in class: cell count
Description: (§1) Cells (7 × 10^4) were seeded on 20 mm coverslips. […] Coverslips were incubated for 1 h with the primary antibody (Cell Signaling: H2AX Ser139 (#2595) and 53BP1 (#4937)) at room temperature, followed by a 1 h incubation with the appropriate secondary antibody. DNA was stained with DAPI. Fluorescence microscopy was performed using a NIKON Eclipse 90i. The image analysis was performed using the software program Nikon NIS-Elements and Image J.

[2] = test system: AGS cells; assay: Immunofluorescence of γ-H2AX and 53BP1 foci; format: cell-based, human; details: for foci/cell, share of cells in class (Suma 100) / foci/cell, number of cells in class: Fig. 3B; for foci/cell, number of cells in class: cell count
Description: as §1

[3] = test system: PANC1 cells; assay: Flow cytometry mitochondrial mass and membrane potential (MitoTracker Green / CMXRos); format: cell-based, human
Description: (§2) We used flow cytometry to study the mitochondrial mass, mitochondrial membrane potential (ΔΨm) and cellular senescence of untreated and treated cells. Cells (5 × 10^4) were seeded in 24-multiwell dishes and cultured overnight. […] Cells were tripsinized, stained with Mitoprobes and resuspended in Flow buffer [1X PBS; 3% Fetal Bovine Serum (v/v); 3 mM EDTA (v/v)] before analysis with a 4-laser Attune NxT Acoustic Cytometer (Thermo Fisher Scientific). For Mitoprobe assays, […] DAPI (Sigma) was used to exclude dead cells. Data were analyzed with FlowJo 9.3 software (Tree Star Inc., Ashland, OR). For mitochondrial mass and ΔΨm measurement, Mitotracker Green (MTGreen, M7514, Invitrogen) and Mitotracker Red CMXRos (CMXROS, M7512, Invitrogen) were used, respectively. Probes were incubated with cells for 30 min at 37 °C at a concentration of 100 nM (MTGreen) and 20 nM (CMXROS), and fluorescence was detected using the filters (Ex488nm/Em530/30) BL1 and (Ex561nm/Em585/16) YL1, respectively. To determine mitochondria functionality, the ratio between ΔΨm (MitoTracker Red CMXRos) versus Mit. Mass (MitoTracker Green) was calculated. The gating strategy used in all the Flow Cytometry experiments is reflected in Fig.S10.

[4] = test system: MKN45 cells; assay: as above; format: cell-based, human
Description: as §2

[5] = test system: AGS cells; assay: as above; format: cell-based, human
Description: as §2

[6] = test system: PANC1 cells; assay: SA-β-Gal activity, CellEvent Senescence Green flow cytometry;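 also: IC50 concentration of each compound relative to untreated control set as 1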; format: cell-based, human; details: Fig. 3A, replicate values
Description: (§3) SA-β-Gal activity was measured following two different approaches. (i) AGS, MKN45 and PANC1 cells (5 × 10^4) were seeded in 24-multiwell dishes and incubated overnight. […] For flow cytometry cell senescence detection, cells were tripsinized, fixed for 15 min with PFA 4% and stained with the CellEvent Senescense Green Flow Cytometry Assay Kit (C10840, Invitrogen) according to manufacturer’s instructions. CellEvent Senescense Green Probe was used at a 1:500 dilution and fluorescence was detected using the filter (Ex488nm/Em530/30) BL1 with a 4-laser Attune NxT Acoustic Cytometer (Thermo Fisher Scientific). […] After 3 h, the treatments were removed, new supplemented medium was added, and cells were incubated for an additional 24 h. Finally, SA-β-Gal staining was performed using the Senescence Cells Histochemical Staining Kit (CS0030-1KT) according to the manufacturer’s instructions.

[7] = test system: MKN45 cells; assay: as above; format: cell-based, human; details: Fig. 3A, replicate values
Description: as §3

[8] = test system: AGS cells; assay: as above; format: cell-based, human; details: Fig. 3A, replicate values
Description: as §3

[9] = test system: HPDE cells; assay: Cell viability, crystal violet staining, non-tumoral cells; details: read-out: IC50 concentration (± SD) at 48 h in non-tumoral cell lines
Description: (§4) Cell viability was assessed using a crystal violet-based staining method. […] The cells (2 × 10^5) were seeded in 24-multiwell dishes in 0.5 mL of complete medium and incubated overnight. […] After 48 h, cells were fixed with 1% glutaraldehyde (20–30 min), washed with distilled water, and stained with 0.1% crystal violet. […] IC50 were calculated by using GraphPad Prism (version 8.0). Nonlinear regression was used to fit the data to the log (inhibitor) versus response (variable slope).

[10] = test system: CC2509 fibroblasts; assay: as above; details: read-out: IC50 concentration (± SD) at 48 h in non-tumoral cell lines; CC2509, 48 h
Description: as §4

[11] = test system: AGS cells; assay: SA-β-Gal histochemical staining; format: cell-based, human; details: Fig. S4A
Description: as §3

[12] = PANC1, fold change vs C, replicates
[13] = MKN45, fold change vs C, replicates

[NH2][Pt]([NH2])([Cl])[Cl] [CDDP, cisplatin, reference compound]
foci/cell: number of cells with 16-30 foci ([1]; PANC1, Fig. S4B, cell counts): 32 | foci/cell: number of cells with 31-45 foci ([1]; PANC1, Fig. S4B, cell counts): 36 | foci/cell: number of cells with 46-60 foci ([1]; PANC1, Fig. S4B, cell counts): 25 | foci/cell: number of cells with <15 foci ([1]; PANC1, Fig. S4B, cell counts): 21 | foci/cell: number of cells with >61 foci ([1]; PANC1, Fig. S4B, cell counts): 22 | foci/cell: share of cells with 16-30 foci (Suma 100) ([1]; PANC1, Fig. S4B, share of N): 23.5294 | foci/cell: share of cells with 31-45 foci (Suma 100) ([1]; PANC1, Fig. S4B, share of N): 26.4706 | foci/cell: share of cells with 46-60 foci (Suma 100) ([1]; PANC1, Fig. S4B, share of N): 18.3824 | foci/cell: share of cells with <15 foci (Suma 100) ([1]; PANC1, Fig. S4B, share of N): 15.4412 | foci/cell: share of cells with >61 foci (Suma 100) ([1]; PANC1, Fig. S4B, share of N): 16.1765 | foci/cell, share of cells in class (Suma 100) ([1]; class 16-30 foci/cell): 10 | foci/cell, number of cells in class ([1]; class 16-30 foci/cell): 11 | foci/cell, share of cells in class (Suma 100) ([1]; class 31-45 foci/cell): 23.6364 | foci/cell, number of cells in class ([1]; class 31-45 foci/cell): 26 | foci/cell, share of cells in class (Suma 100) ([1]; class 46-60 foci/cell): 20 | foci/cell, number of cells in class ([1]; class 46-60 foci/cell): 22 | foci/cell, share of cells in class (Suma 100) ([1]; class <15 foci/cell): 6.364 | foci/cell, number of cells in class ([1]; class <15 foci/cell): 7 | foci/cell, share of cells in class (Suma 100) ([1]; class >61 foci/cell): 40 | foci/cell, number of cells in class ([1]; class >61 foci/cell): 44 | foci/cell, share of cells in class (Suma 100) ([2]; class 16-30 foci/cell): 23.0769 | foci/cell, number of cells in class ([2]; class 16-30 foci/cell): 18 | foci/cell, share of cells in class (Suma 100) ([2]; class 31-45 foci/cell): 26.9231 | foci/cell, number of cells in class ([2]; class 31-45 foci/cell): 21 | foci/cell, share of cells in class (Suma 100) ([2]; class 46-60 foci/cell): 21.7949 | foci/cell, number of cells in class ([2]; class 46-60 foci/cell): 17 | foci/cell, share of cells in class (Suma 100) ([2]; class <15 foci/cell): 21.7949 | foci/cell, number of cells in class ([2]; class <15 foci/cell): 17 | foci/cell, share of cells in class (Suma 100) ([2]; class >61 foci/cell): 6.41 | foci/cell, number of cells in class ([2]; class >61 foci/cell): 5 | foci/cell: number of cells with 16-30 foci ([2]; Fig. S4B, cell counts): 35 | foci/cell: number of cells with 31-45 foci ([2]; Fig. S4B, cell counts): 15 | foci/cell: number of cells with 46-60 foci ([2]; Fig. S4B, cell counts): 5 | foci/cell: number of cells with <15 foci ([2]; Fig. S4B, cell counts): 45 | foci/cell: number of cells with >61 foci ([2]; Fig. S4B, cell counts): 4 | foci/cell: share of cells with 16-30 foci (Suma 100) ([2]; Fig. S4B, share of N): 33.6538 | foci/cell: share of cells with 31-45 foci (Suma 100) ([2]; Fig. S4B, share of N): 14.4231 | foci/cell: share of cells with 46-60 foci (Suma 100) ([2]; Fig. S4B, share of N): 4.808 | foci/cell: share of cells with <15 foci (Suma 100) ([2]; Fig. S4B, share of N): 43.2692 | foci/cell: share of cells with >61 foci (Suma 100) ([2]; Fig. S4B, share of N): 3.846 | Fold change ΔΨm/MM ([3]; PANC1, IC50 doses 24 h, CMX-ROS/MitoGreen ratio vs untreated 1.0): 0.48 and 0.57 and 0.56 | Fold change %CMXROS, ΔΨm [3, 12]: 1.08 and 1.13 | Fold change %MTGreen, MM [3, 12]: 1.99 and 2.23 and 2.11 | Fold change ΔΨm/MM ([4]; MKN45, IC50 doses 24 h, CMX-ROS/MitoGreen ratio vs untreated 1.0): 0.77 and 0.76 | Fold change %CMXROS, ΔΨm [4, 13]: 0.72 and 0.71 | Fold change %MTGreen, MM [4, 13]: 0.94 and 0.93 | Fold change ΔΨm/MM ([5]; IC50 doses 24 h, CMX-ROS/MitoGreen ratio vs untreated 1.0): 1.12 and 0.8 and 0.61 | Fold change %CMXROS, ΔΨm ([5]; fold change vs C, replicates): 0.87 and 0.86 and 0.72 | Fold change %MTGreen, MM ([5]; fold change vs C, replicates): 0.78 and 0.73 and 0.76 | Fold change % Senescence [6]: 1.64 fold change and 1.11 fold change and 1.53 fold change | Fold change % Senescence [7]: 1.67 fold change and 1.92 fold change and 1.87 fold change | Fold change % Senescence [8]: 1.16 fold change and 1.15 fold change and 1.2 fold change | IC50 [9]: 0.45 ± 0.05 µM | IC50 [10]: 25 µM and 23.8 µM | Fold change % Senescence [11]: 58.33% and 50% and 67.21%
